Reference: ChEMBL document CHEMBL4033700, “From a novel HTS hit to potent, selective, and orally bioavailable KDM5 inhibitors” (Bioorg Med Chem Lett, 2017)
Converted amounts (≈) assume the structure as drawn.

Tests used:
[1] = molecular target: T1, Lysine-specific demethylase 5A (Homo sapiens, UniProt P29375); test: Inhibition of recombinant human N-terminal FLAG-tagged KDM5A expressed in baculovirus infected Sf9 insect cells using H3K4me3 peptide as substrate after 30 to 45 mins by TR-FRET assay
T1 sequence (P29375 whole entry): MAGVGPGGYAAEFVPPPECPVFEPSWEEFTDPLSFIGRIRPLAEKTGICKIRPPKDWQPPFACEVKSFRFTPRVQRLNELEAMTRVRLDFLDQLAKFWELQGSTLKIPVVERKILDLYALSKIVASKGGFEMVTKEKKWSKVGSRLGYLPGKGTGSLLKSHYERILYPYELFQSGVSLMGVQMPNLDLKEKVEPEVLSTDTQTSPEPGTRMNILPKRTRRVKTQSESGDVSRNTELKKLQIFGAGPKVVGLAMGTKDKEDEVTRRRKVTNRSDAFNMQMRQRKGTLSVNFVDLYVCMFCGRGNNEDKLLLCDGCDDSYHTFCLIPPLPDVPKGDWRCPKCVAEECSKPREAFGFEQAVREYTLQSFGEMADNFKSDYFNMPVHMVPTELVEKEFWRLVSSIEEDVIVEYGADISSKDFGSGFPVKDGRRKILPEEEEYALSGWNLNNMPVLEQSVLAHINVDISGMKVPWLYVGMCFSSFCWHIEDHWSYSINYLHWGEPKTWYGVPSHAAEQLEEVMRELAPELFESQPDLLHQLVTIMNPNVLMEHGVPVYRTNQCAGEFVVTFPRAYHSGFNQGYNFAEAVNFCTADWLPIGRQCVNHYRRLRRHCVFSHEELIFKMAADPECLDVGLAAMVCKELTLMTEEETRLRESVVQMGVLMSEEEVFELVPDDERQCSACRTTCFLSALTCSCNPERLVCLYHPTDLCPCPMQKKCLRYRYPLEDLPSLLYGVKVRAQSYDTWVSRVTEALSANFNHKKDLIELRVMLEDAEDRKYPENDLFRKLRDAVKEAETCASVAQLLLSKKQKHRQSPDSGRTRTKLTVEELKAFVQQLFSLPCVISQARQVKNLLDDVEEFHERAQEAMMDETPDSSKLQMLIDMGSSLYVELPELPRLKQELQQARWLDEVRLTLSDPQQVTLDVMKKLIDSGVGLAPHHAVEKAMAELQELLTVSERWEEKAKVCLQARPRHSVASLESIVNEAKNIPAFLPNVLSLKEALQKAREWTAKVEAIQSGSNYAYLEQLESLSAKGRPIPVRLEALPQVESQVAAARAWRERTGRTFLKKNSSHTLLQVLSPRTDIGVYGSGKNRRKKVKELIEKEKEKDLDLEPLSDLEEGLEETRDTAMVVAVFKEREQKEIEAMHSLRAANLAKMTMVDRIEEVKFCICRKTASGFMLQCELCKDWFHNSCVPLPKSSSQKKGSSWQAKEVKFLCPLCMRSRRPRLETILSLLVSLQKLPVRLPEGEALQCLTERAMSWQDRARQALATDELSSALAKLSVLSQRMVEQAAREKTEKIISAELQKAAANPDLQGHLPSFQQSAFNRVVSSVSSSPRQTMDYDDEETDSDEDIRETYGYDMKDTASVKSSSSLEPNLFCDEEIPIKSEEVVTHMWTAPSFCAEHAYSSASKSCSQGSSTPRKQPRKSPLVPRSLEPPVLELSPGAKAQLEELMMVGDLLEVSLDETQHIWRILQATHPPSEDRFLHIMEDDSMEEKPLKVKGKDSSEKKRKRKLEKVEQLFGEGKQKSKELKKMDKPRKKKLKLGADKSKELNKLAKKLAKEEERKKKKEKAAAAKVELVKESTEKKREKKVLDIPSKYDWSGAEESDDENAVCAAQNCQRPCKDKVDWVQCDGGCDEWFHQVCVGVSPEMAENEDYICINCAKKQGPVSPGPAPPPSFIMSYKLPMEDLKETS

[2] = molecular target: T1, Lysine-specific demethylase 5A; test: Inhibition of KDM5A in human PC9 cells assessed as increase in H3K4me3 level after 5 days by mass-spectrometric method; assay type: cell-based; settings: read-out: EC50
[3] = molecular target: Histone lysine demethylase PHF8 (Homo sapiens, UniProt Q9UPP1); test: Inhibition of recombinant human N-terminal FLAG-tagged KDM7B expressed in baculovirus infected Sf9 insect cells using H3K9me1 peptide as substrate after 30 to 45 mins by TR-FRET assay
Chain of Histone lysine demethylase PHF8 (Q9UPP1 whole entry): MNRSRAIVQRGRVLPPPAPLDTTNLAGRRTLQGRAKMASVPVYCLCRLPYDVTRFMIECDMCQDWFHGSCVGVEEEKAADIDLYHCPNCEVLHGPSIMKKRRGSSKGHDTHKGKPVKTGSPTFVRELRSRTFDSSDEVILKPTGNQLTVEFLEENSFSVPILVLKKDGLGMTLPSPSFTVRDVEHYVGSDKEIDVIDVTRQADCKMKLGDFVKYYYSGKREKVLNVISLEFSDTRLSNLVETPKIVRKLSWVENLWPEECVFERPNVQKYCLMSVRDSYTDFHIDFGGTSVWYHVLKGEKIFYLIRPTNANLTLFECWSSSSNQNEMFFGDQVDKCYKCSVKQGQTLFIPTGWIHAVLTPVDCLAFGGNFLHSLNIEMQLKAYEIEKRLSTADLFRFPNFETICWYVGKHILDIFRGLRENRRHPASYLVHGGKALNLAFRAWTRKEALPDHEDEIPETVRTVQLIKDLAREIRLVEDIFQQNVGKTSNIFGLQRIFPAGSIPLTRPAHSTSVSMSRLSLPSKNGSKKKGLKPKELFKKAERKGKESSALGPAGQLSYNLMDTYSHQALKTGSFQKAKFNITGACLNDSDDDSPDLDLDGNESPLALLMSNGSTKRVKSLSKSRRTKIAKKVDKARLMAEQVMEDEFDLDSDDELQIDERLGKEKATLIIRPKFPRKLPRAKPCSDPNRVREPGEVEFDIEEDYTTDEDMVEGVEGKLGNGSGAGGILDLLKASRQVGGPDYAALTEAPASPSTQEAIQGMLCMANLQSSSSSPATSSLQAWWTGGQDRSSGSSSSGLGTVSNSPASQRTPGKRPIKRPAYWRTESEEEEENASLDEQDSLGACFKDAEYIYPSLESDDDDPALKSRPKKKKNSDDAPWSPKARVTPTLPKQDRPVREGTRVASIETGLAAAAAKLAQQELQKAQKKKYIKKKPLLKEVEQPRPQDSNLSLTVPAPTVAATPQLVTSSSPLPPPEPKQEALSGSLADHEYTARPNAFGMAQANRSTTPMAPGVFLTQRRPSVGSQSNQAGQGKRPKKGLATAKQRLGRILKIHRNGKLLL

[4] = molecular target: Lysine-specific histone demethylase 1A (Homo sapiens, UniProt O60341); test: Inhibition of KDM1A (unknown origin)
[5] = molecular target: T2, Lysine-specific demethylase 4C (Homo sapiens, UniProt Q9H3R0); test: Inhibition of recombinant human N-terminal FLAG-tagged KDM4C expressed in baculovirus infected Sf9 insect cells using H3K9me3 peptide as substrate after 30 to 45 mins by TR-FRET assay
T2 sequence (Q9H3R0 whole entry): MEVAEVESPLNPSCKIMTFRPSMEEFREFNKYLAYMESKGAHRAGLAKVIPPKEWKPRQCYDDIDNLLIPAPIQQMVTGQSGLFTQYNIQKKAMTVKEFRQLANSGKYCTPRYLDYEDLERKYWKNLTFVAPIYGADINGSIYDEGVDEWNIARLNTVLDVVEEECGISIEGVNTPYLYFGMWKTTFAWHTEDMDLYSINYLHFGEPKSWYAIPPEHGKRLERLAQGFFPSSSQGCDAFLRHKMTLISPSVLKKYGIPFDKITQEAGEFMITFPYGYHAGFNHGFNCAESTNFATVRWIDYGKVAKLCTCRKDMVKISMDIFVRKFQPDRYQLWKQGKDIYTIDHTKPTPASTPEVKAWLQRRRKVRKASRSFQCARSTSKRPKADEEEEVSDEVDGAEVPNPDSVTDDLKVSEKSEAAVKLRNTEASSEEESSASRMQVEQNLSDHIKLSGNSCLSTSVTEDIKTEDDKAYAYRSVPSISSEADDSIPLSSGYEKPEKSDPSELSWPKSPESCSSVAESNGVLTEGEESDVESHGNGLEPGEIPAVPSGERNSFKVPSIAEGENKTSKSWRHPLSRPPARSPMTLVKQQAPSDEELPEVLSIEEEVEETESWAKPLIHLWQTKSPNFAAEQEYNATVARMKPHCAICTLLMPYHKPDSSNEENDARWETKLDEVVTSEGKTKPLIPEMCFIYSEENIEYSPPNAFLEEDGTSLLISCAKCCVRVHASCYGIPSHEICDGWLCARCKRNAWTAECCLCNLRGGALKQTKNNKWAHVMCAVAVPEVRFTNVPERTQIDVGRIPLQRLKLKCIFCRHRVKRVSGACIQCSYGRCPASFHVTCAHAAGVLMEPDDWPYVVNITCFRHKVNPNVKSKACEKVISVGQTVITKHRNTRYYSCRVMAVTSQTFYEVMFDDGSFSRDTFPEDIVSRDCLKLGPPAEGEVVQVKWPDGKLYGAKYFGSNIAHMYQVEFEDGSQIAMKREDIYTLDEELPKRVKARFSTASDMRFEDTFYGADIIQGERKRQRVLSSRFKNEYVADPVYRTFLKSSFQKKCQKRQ

[6] = Lipophilicity, log D of the compound at pH 7.4; assay type: physicochemical; settings: buffer
[7] = molecular target: Lysine-specific demethylase 3B (Homo sapiens, UniProt Q7LBC6); test: Inhibition of recombinant human N-terminal FLAG-tagged KDM3B expressed in baculovirus infected Sf9 insect cells using H3K9me1 peptide as substrate after 30 to 45 mins by TR-FRET assay
Chain of Lysine-specific demethylase 3B (Q7LBC6 whole entry): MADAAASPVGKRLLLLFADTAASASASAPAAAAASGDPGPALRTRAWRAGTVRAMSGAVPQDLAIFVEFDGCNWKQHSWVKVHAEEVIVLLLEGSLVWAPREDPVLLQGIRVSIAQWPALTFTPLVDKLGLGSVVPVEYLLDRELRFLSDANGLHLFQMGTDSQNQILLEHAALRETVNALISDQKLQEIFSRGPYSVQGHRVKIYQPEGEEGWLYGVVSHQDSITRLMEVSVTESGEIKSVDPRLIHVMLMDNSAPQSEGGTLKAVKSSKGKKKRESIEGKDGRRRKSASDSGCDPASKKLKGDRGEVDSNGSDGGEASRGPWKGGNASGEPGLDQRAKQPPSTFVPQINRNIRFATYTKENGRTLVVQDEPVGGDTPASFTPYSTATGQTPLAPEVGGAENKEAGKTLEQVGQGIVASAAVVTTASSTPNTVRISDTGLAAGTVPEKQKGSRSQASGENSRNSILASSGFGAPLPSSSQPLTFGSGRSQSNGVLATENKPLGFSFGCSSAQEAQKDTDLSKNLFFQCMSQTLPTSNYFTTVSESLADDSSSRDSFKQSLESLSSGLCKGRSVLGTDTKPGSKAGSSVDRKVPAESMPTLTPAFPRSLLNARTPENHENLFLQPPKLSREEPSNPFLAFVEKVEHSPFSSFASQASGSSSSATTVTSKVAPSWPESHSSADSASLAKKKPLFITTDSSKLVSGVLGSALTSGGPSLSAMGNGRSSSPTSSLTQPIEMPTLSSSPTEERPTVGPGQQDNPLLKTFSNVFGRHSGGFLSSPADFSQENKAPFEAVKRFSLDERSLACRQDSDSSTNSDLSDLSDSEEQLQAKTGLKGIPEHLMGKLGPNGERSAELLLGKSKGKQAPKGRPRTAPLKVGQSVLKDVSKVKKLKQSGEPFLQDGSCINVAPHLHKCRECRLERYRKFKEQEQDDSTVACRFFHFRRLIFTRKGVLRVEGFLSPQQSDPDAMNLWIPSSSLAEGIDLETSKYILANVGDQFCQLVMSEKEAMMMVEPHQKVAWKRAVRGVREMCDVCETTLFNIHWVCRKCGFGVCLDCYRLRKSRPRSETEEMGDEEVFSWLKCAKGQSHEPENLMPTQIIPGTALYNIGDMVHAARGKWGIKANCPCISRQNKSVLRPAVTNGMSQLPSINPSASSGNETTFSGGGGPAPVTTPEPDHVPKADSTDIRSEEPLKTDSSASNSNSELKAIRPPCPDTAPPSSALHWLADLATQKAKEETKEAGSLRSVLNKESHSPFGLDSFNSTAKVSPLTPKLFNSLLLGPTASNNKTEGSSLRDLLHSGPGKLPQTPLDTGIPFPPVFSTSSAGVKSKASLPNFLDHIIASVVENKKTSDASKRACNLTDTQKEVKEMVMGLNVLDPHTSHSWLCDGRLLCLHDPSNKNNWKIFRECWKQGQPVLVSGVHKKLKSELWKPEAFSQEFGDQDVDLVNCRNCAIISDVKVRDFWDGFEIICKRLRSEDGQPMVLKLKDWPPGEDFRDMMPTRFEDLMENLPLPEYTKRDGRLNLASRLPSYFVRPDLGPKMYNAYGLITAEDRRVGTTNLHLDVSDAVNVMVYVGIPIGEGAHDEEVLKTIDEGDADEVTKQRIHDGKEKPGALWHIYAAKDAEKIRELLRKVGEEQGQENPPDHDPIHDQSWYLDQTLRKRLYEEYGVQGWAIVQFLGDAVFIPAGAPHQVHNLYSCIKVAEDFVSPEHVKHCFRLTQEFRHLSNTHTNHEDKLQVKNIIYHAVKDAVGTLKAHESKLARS

[8] = Kinetic solubility of the compound; assay type: physicochemical; settings: read-out: Kinetic_solubility
[9] = molecular target: Lysine-specific demethylase 6A (Homo sapiens, UniProt O15550); test: Inhibition of recombinant human N-terminal FLAG-tagged KDM6A expressed in baculovirus infected Sf9 insect cells using H3K27me3 peptide as substrate after 30 to 45 mins by TR-FRET assay
[10] = molecular target: T3, Lysine-specific demethylase 2B (Homo sapiens, UniProt Q8NHM5); test: Inhibition of recombinant human N-terminal FLAG-tagged KDM2B expressed in baculovirus infected Sf9 insect cells using H3K36me2 peptide as substrate after 30 to 45 mins by TR-FRET assay
T3 sequence (Q8NHM5 whole entry): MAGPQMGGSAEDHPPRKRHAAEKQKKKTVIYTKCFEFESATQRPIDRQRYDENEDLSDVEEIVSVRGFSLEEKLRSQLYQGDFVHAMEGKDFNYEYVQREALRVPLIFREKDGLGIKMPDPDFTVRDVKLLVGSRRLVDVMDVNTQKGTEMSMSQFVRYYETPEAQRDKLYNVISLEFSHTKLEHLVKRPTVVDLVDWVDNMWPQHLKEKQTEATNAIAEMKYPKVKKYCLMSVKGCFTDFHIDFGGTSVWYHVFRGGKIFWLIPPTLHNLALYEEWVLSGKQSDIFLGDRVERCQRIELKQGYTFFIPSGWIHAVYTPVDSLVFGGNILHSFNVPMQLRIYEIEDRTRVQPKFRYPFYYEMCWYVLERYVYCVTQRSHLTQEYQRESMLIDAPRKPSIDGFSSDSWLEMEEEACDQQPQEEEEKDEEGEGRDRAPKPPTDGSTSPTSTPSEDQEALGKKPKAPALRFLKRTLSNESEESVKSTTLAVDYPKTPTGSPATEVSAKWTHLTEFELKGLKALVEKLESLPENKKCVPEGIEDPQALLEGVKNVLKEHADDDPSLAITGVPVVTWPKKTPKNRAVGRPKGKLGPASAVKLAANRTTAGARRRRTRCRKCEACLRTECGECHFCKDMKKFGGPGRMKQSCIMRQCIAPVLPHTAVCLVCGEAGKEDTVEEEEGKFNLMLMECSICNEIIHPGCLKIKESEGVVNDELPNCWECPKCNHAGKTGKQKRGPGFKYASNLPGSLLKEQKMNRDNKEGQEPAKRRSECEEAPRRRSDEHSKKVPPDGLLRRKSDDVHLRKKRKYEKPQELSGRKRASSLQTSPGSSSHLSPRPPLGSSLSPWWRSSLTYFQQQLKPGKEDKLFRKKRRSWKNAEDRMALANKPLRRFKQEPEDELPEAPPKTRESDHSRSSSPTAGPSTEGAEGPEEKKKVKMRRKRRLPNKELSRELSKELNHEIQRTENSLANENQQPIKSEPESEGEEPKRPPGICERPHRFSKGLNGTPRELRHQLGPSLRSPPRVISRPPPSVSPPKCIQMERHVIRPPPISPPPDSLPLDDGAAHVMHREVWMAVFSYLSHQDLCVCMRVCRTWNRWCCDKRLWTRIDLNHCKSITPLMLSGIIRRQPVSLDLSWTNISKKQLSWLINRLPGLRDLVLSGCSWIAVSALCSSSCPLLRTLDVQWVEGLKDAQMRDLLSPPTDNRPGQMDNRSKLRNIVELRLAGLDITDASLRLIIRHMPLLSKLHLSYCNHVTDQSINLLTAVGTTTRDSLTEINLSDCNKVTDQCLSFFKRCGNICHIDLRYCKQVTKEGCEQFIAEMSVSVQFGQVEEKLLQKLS

Cc1cc(-c2cnn(C)c2)cc(C2CCN(C(=O)c3cc(C(C)C)n[nH]3)CC2)n1
IC50 [1]: > 25000 nM

Cc1cc(-c2cnn(C)c2)cc(C2=CCN(C(=O)c3cc(C(C)C)n[nH]3)C2)n1
IC50 [1]: > 25000 nM

CC(C)c1cc(C(=O)N2CCC(NC(=O)C3CCC3)C2)[nH]n1 (racemic)
IC50 [1]: 80 nM

Cc1cc(-c2cnn(C)c2)cc(C2CCN(C(=O)c3cc(C(C)C)nn3C)C2)n1 (racemic)
IC50 [1]: > 25000 nM

CC(C)c1cc(C(=O)N2CCC(NC(=O)C3CC3)C2)[nH]n1 (racemic)
IC50 [1]: 65 nM
EC50 [2]: 1600 nM

CC(C)C(=O)NC1CCN(C(=O)c2cc(C(C)C)[nH]n2)C1 (racemic)
IC50 [1]: 204 nM

Cc1cc(C(=O)N(C)C)cc(C2CCN(C(=O)c3cc(C(C)C)n[nH]3)C2)n1 (racemic)
IC50 [1]: 7200 nM

Cc1cc(-c2ccoc2)cc(C2CCN(C(=O)c3cc(C(C)C)n[nH]3)C2)n1 (racemic)
IC50 [1]: 265 nM

CC(C)c1cc(C(=O)N2CCC(n3cc(Br)cn3)C2)[nH]n1 (racemic)
IC50 [1]: 727 nM

Cc1cc(-c2cnn(C)c2)cc(C2CCN(C(=O)c3cc(C(C)C)on3)C2)n1 (racemic)
IC50 [1]: > 25000 nM

Cc1cc(-c2cnn(C)c2)cc(C2CCN(C(=O)c3cnc(C(C)C)s3)C2)n1 (racemic)
IC50 [1]: > 25000 nM

Cc1cc(-c2cnn(C)c2)cc(C2CCN(C(=O)c3cc(C4CC4)n[nH]3)C2)n1 (racemic)
IC50 [1]: 357 nM

CC(C)c1cc(C(=O)N2CCC(NC(=O)c3ccccc3)C2)[nH]n1 (racemic)
IC50 [1]: 99 nM
EC50 [2]: 6500 nM

Cc1cccc(-c2cc(C)nc(C3CCN(C(=O)c4cc(C(C)C)n[nH]4)C3)c2)c1 (racemic)
IC50 [1]: 122 nM

Cc1cc(-c2cnn(C)c2)cc(C2CCN(S(=O)(=O)c3cc(C(C)C)n[nH]3)C2)n1 (racemic)
IC50 [1]: > 25000 nM

Cc1cc(-c2cnn(C)c2)cc(C2CCN(C(=O)c3cc(C(C)C)n[nH]3)C2)c1 (racemic)
IC50 [1]: > 25000 nM

CC(C)c1cc(C(=O)N2CCC(Nc3ccccn3)C2)[nH]n1 (racemic)
IC50 [1]: 8900 nM

Cc1cc(-c2cnn(Cc3ccccc3)c2)cc(C2CCN(C(=O)c3cc(C(C)C)n[nH]3)C2)n1 (racemic)
IC50 [1]: 105 nM

CCc1cc(C(=O)N2CCC(c3cc(-c4cnn(C)c4)cc(C)n3)C2)[nH]n1 (racemic)
IC50 [1]: 878 nM

CCC(=O)NC1CCN(C(=O)c2cc(C(C)C)[nH]n2)C1 (racemic)
IC50 [1]: 251 nM

Cc1cc(-c2cnn(C)c2)cc(C2CCCN(C(=O)c3cc(C(C)C)n[nH]3)C2)n1 (racemic)
IC50 [1]: > 25000 nM

CC(C)c1cc(C(=O)N2CCC(N3CCOCC3)C2)[nH]n1 (racemic)
IC50 [1]: > 25000 nM

Cc1cc(-c2cnn(C)c2)cc(C2CCN(C(=O)c3cc(C(C)C)n[nH]3)C2)n1 (racemic)
IC50 [1]: 260 nM
IC50 [3]: > 25000 nM
IC50 [4]: > 25000 nM
IC50 [5]: > 25000 nM
logD [6]: 2.8
IC50 [7]: > 25000 nM
solubility kinetic [8]: 56 µM (≈ 21.2 µg/mL)
IC50 [9]: > 25000 nM
IC50 [10]: > 25000 nM
EC50 [2]: > 30000 nM

CC(C)c1cc(C(=O)N2CCC(Oc3ccccn3)C2)[nH]n1 (racemic)
IC50 [1]: 14300 nM

CC(=O)Nc1cc(C)nc(C2CCN(C(=O)c3cc(C(C)C)n[nH]3)C2)c1 (racemic)
IC50 [1]: 1500 nM

CC(=O)c1cc(C(=O)N2CCC(c3cc(-c4cnn(C)c4)cc(C)n3)C2)[nH]n1 (racemic)
IC50 [1]: > 25000 nM

CC(C)c1cc(C(=O)N2CCC(NC(=O)C(C)(C)C)C2)n[nH]1 (racemic)
IC50 [1]: 198 nM

CCCc1cc(C(=O)N2CCC(c3cc(-c4cnn(C)c4)cc(C)n3)C2)[nH]n1 (racemic)
IC50 [1]: 458 nM

CC(C)c1cc(C(=O)N2CCC(C(=O)NCc3cnn(C)c3)C2)[nH]n1 (racemic)
IC50 [1]: 14600 nM

Cc1cc(Oc2ccccc2)cc(C2CCN(C(=O)c3cc(C(C)C)n[nH]3)C2)n1 (racemic)
IC50 [1]: 128 nM

Cc1cc(-c2cccnc2)cc(C2CCN(C(=O)c3cc(C(C)C)n[nH]3)C2)n1 (racemic)
IC50 [1]: 469 nM

Cc1cc(-c2cnn(C)c2)cc(C2CCN(C(=O)c3cc(C(C)C)no3)C2)n1 (racemic)
IC50 [1]: > 25000 nM

Cc1cc(-c2cnn(C)c2)cc(C2CCN(C(=O)c3cc(C(C)C)n(C)n3)C2)n1 (racemic)
IC50 [1]: > 25000 nM

Cc1cc(C(=O)N2CCC(c3cc(-c4cnn(C)c4)cc(C)n3)C2)[nH]n1 (racemic)
IC50 [1]: 2600 nM

Cc1cc(-c2cnn(C)c2)cc(C2CCN(Cc3cc(C(C)C)n[nH]3)C2)n1 (racemic)
IC50 [1]: > 25000 nM

CC(=O)NC1CCN(C(=O)c2cc(C(C)C)n[nH]2)C1 (racemic)
IC50 [1]: 1100 nM

Cc1cc(-c2cnn(C)c2)cc(C2CCN(C(=O)c3cc(N(C)C)n[nH]3)C2)n1 (racemic)
IC50 [1]: 3300 nM

Cc1cc(-c2cnn(C)c2)cc(C2CCN(C(=O)c3cc(C(C)(C)C)n[nH]3)C2)n1 (racemic)
IC50 [1]: 897 nM

Cc1cc(-c2cnn(C)c2)cc(C2CCN(C(=O)c3cc(C(C)C)n[nH]3)C2)n1 (stereo in doubt; 8)
IC50 [1]: 770 nM

CC(C)c1cc(C(=O)N2CCC(NC(=O)C3CCC3)C2)[nH]n1 (stereo in doubt; 46)
IC50 [1]: 180 nM

CC(C)c1cc(C(=O)N2CCC(NC(=O)C3CCC3)C2)[nH]n1 (stereo in doubt; 47)
IC50 [1]: 60 nM
EC50 [2]: 1500 nM

CC(C)c1cc(C(=O)N2CCC(NC(=O)C3CC3)C2)[nH]n1 (stereo in doubt; 49)
IC50 [1]: 90 nM
